Peptide text beside a SMILES is read from it.
Tests used:
Type in all cases: cell-based, human
CNS cancer cell lines = assay: NCI-60 screening, average of cancer type; settings: for log GI50: Table 5, CNS, averaged over cell lines, 48 h, sulforhodamine B, 10^-4 to 10^-8 M; for Log GI (M): Table S3, CNS, averaged activity for the cancer type, log GI50
Experimental: (§1) NCI-60 screening procedure
(§2) The NCI-60 screening procedure was performed by the Developmental Therapeutics Program of the National Cancer Institute. The procedure was performed as previously described24 in 96-well microtiter plates. Each peptide was tested in a 5-concentration assay, starting at 10^-4 M and diluting 10-fold to the lowest 10^-8 M concentration. The peptides were incubated for 48 h and the cell concentration was assayed by using the sulforhodamine B assay25 and optical density measurements. The growth inhibition (GI50) value24, measures the growth inhibitory power of the drug agent. The GI50 value is the concentration of the test drug for which the condition in Eq. S1 is met, where T is the optical density of the test well after a 48-h exposure to the peptide, T0 the optical density before applying the peptide drug and C the control optical density of a well where no peptide was applied.

A549/ATCC = assay: NCI-60 screening; settings: A549/ATCC (Lung); log GI50; 48 h, sulforhodamine B, 10^-4 to 10^-8 M
Experimental: as §1, §2

ACHN = assay: NCI-60 screening; settings: ACHN (Renal); log GI50; 48 h, sulforhodamine B, 10^-4 to 10^-8 M
Experimental: as §1, §2

CCRF-CEM = assay: NCI-60 screening; settings: CCRF-CEM (Leukemia); log GI50; 48 h, sulforhodamine B, 10^-4 to 10^-8 M
Experimental: as §1, §2

EKVX = assay: NCI-60 screening; settings: EKVX (Lung); log GI50; 48 h, sulforhodamine B, 10^-4 to 10^-8 M
Experimental: as §1, §2

HCC-2998 = assay: NCI-60 screening; settings: HCC-2998 (Colon); log GI50; 48 h, sulforhodamine B, 10^-4 to 10^-8 M
Experimental: as §1, §2

HOP-62 = assay: NCI-60 screening; settings: HOP-62 (Lung); log GI50; 48 h, sulforhodamine B, 10^-4 to 10^-8 M
Experimental: as §1, §2

HOP-92 = assay: NCI-60 screening; settings: HOP-92 (Lung); log GI50; 48 h, sulforhodamine B, 10^-4 to 10^-8 M
Experimental: as §1, §2

IGVROV1 = assay: NCI-60 screening; settings: IGVROV1 (Ovarian); log GI50; 48 h, sulforhodamine B, 10^-4 to 10^-8 M
Experimental: as §1, §2

K-562 = assay: NCI-60 screening; settings: K-562 (Leukemia); log GI50; 48 h, sulforhodamine B, 10^-4 to 10^-8 M
Experimental: as §1, §2

LOX IMVI = assay: NCI-60 screening; settings: LOX IMVI (Melanoma); log GI50; 48 h, sulforhodamine B, 10^-4 to 10^-8 M
Experimental: as §1, §2

M14 = assay: NCI-60 screening; settings: M14 (Melanoma); log GI50; 48 h, sulforhodamine B, 10^-4 to 10^-8 M
Experimental: as §1, §2

MALME-3M = assay: NCI-60 screening; settings: MALME-3M (Melanoma); log GI50; 48 h, sulforhodamine B, 10^-4 to 10^-8 M
Experimental: as §1, §2

MDA-MB-468 = assay: NCI-60 screening; settings: MDA-MB-468 (Breast); log GI50; 48 h, sulforhodamine B, 10^-4 to 10^-8 M
Experimental: as §1, §2

NCI-H226 = assay: NCI-60 screening; settings: NCI-H226 (Lung); log GI50; 48 h, sulforhodamine B, 10^-4 to 10^-8 M
Experimental: as §1, §2

NCI/ADR-RES = assay: NCI-60 screening; settings: NCI/ADR-RES (Ovarian); log GI50; 48 h, sulforhodamine B, 10^-4 to 10^-8 M
Experimental: as §1, §2

OVCAR-4 = assay: NCI-60 screening; settings: OVCAR-4 (Ovarian); log GI50; 48 h, sulforhodamine B, 10^-4 to 10^-8 M
Experimental: as §1, §2

OVCAR-5 = assay: NCI-60 screening; settings: OVCAR-5 (Ovarian); log GI50; 48 h, sulforhodamine B, 10^-4 to 10^-8 M
Experimental: as §1, §2

RPMI-8226 = assay: NCI-60 screening; settings: RPMI-8226 (Leukemia); log GI50; 48 h, sulforhodamine B, 10^-4 to 10^-8 M
Experimental: as §1, §2

SF-268 = assay: NCI-60 screening; settings: SF-268 (CNS); log GI50; 48 h, sulforhodamine B, 10^-4 to 10^-8 M
Experimental: as §1, §2

SK-MEL-2 = assay: NCI-60 screening; settings: SK-MEL-2 (Melanoma); log GI50; 48 h, sulforhodamine B, 10^-4 to 10^-8 M
Experimental: as §1, §2

SNB-19 = assay: NCI-60 screening; settings: SNB-19 (CNS); log GI50; 48 h, sulforhodamine B, 10^-4 to 10^-8 M
Experimental: as §1, §2

SR = assay: NCI-60 screening; settings: SR (Leukemia); log GI50; 48 h, sulforhodamine B, 10^-4 to 10^-8 M
Experimental: as §1, §2

T-47D = assay: NCI-60 screening; settings: T-47D (Breast); log GI50; 48 h, sulforhodamine B, 10^-4 to 10^-8 M
Experimental: as §1, §2

UACC-257 = assay: NCI-60 screening; settings: UACC-257 (Melanoma); log GI50; 48 h, sulforhodamine B, 10^-4 to 10^-8 M
Experimental: as §1, §2

UACC-62 = assay: NCI-60 screening; settings: UACC-62 (Melanoma); log GI50; 48 h, sulforhodamine B, 10^-4 to 10^-8 M
Experimental: as §1, §2

Compound	log GI50 (CNS cancer cell lines)	Log GI (M) (CNS cancer cell lines)	Log GI (M) (A549/ATCC)	Log GI (M) (ACHN)	Log GI (M) (CCRF-CEM)	Log GI (M) (EKVX)	Log GI (M) (HCC-2998)	Log GI (M) (HOP-62)	Log GI (M) (HOP-92)	Log GI (M) (IGVROV1)	Log GI (M) (K-562)	Log GI (M) (LOX IMVI)	Log GI (M) (M14)	Log GI (M) (MALME-3M)	Log GI (M) (MDA-MB-468)	Log GI (M) (NCI-H226)	Log GI (M) (NCI/ADR-RES)	Log GI (M) (OVCAR-4)	Log GI (M) (OVCAR-5)	Log GI (M) (RPMI-8226)	also measured
CC[C@H](C)[C@H](NC(=O)[C@H](CCCNC(=N)N)NC(=O)[C@H](Cc1c[nH]c2ccccc12)NC(=O)[C@@H](NC(=O)[C@H](CCCCN)NC(=O)[C@H](CCCCN)NC(=O)[C@@H](NC(=O)[C@@H](NC(=O)[C@@H](NC(=O)[C@H](CCCCN)NC(=O)[C@H](Cc1ccccc1)NC(=O)[C@H](CCCCN)NC(=O)[C@H](CCCCN)NC(=O)[C@H](Cc1ccccc1)NC(=O)[C@@H](NC(=O)[C@@H](N)CCCCN)[C@@H](C)CC)[C@@H](C)O)[C@@H](C)CC)[C@@H](C)CC)C(C)C)C(=O)N[C@@H](Cc1ccccc1)C(=O)NCC(=O)N[C@@H](CCCNC(=N)N)C(=O)N[C@@H](Cc1ccccc1)C(N)=O [AmphiArc2] (H-KIFKKFKTIIKKVWRIFGRF-NH2)	−5.6 M	-5.63 M	-5.60 M	-5.71 M	-5.60 M	-5.73 M	-5.58 M	-5.62 M	-5.70 M	-5.68 M	-5.55 M	-5.53 M	-5.62 M	-5.89 M	-5.88 M	-5.59 M	-5.53 M	-5.67 M	-5.68 M	-5.51 M	Log GI (M) (SF-268): -5.68 M; Log GI (M) (SK-MEL-2): -5.58 M; Log GI (M) (SNB-19): -5.58 M; Log GI (M) (SR): -5.57 M; Log GI (M) (T-47D): -5.66 M; Log GI (M) (UACC-257): -5.54 M; Log GI (M) (UACC-62): -5.69 M
CC[C@H](C)[C@H](NC(=O)[C@H](CCCCN)NC(=O)[C@H](CCCCN)NC(=O)[C@@H](NC(=O)[C@@H](NC(=O)[C@@H](N)Cc1c[nH]cn1)[C@@H](C)CC)[C@@H](C)CC)C(=O)N[C@@H](CCCNC(=N)N)C(=O)N[C@H](C(=O)N[C@@H](Cc1c[nH]c2ccccc12)C(=O)N[C@@H](Cc1ccc(O)cc1)C(=O)N[C@@H](CCCNC(=N)N)C(=O)N[C@@H](CCCCN)C(=O)N[C@@H](C)C(=O)N[C@@H](Cc1c[nH]c2ccccc12)C(=O)N[C@@H](Cc1c[nH]cn1)C(=O)N[C@H](C(=O)N[C@@H](CC(C)C)C(=O)NCC(=O)N[C@@H](CCCCN)C(=O)N[C@H](C(N)=O)C(C)C)C(C)C)[C@@H](C)O [Off2] (H-HIIKKIRTWYRKAWHVLGKV-NH2)	−5.2 M	-5.21 M	-5.26 M	-4.88 M	-5.43 M	-5.63 M	-5.41 M	-5.34 M	-5.68 M	-5.36 M	-5.18 M	-4.66 M	-5.38 M	-5.64 M	-5.19 M	-5.38 M	-5.23 M	-4.89 M	-5.21 M	-5.06 M	Log GI (M) (SF-268): -5.46 M; Log GI (M) (SK-MEL-2): -5.28 M; Log GI (M) (SNB-19): -4.74 M; Log GI (M) (SR): -5.15 M; Log GI (M) (T-47D): -5.72 M; Log GI (M) (UACC-257): -5.07 M; Log GI (M) (UACC-62): -5.69 M
